According to patent US20180360091A1, “NUTRITIONAL COMPOSITIONS AND INFANT FORMULAS TO PROMOTE MYELINATION IN THE BRAIN” (NESTEC S.A., priority 2015, published 2018):

What follows are molecules tested on children up to 5 years of age (assay: Cross-sectional correlation (GLM) of formula nutrient composition with brain myelination). Settings: 5 most used formulas; voxel-wise correlations, p<0.05 corrected; inter-variable correlation threshold 0.9.
Format: in vivo, human
Experimental: MRI brain scans of infants and children between 0 and 5 years were acquired using a white matter imaging technique. This technique provides a quantitative measure, the Myelin Water Fraction (MWF), which is a surrogate marker of myelin content. When mapped as a function of time across early childhood, myelination trajectories can be generated.
Infant formula composition: six infant formulas fed to infants participating in study were analyzed for their composition/level of myelin-relevant nutrients.
Each infant was scanned using the mcDESPOT (multicomponent Driven Equilibrium Single Pulse Observation of T1 and T2) white matter imaging technique Deoni et al. (Magn. Reson. Med. 2008, 60:1372-1387), which provides a quantitative measure of the myelin water fraction (MWF) at each imaging point throughout the brain. All infants were scanned during natural (i.e. non-sedated) sleep using acoustically-muffled mcDESPOT imaging protocols. Total imaging times ranged from 19 minutes for the youngest toddlers to 24 minutes for the older 4 year-old children.
Following image alignment, non-brain signal removal, and correction for main and transmit magnetic field (B0 and B1) inhomogeneities, a three-pool signal model (comprising the myelin-associated water; intra-extra axonal water; and a non-exchanging free-water pool) was fit to the mcDESPOT data to derive voxel-wise MWF maps.
Each child's map was then non-linearly aligned to a study specific template. White matter masks, corresponding to 5 bilateral regions (frontal, temporal, occipital, parietal, and cerebellar WM) as well as the body, genu, and splenium of the corpus callosum were created from common databases, registered to the common template, and superimposed onto each child's MWF map. Mean values for each region were then determined for each child and used for subsequent developmental analysis and trajectory modeling.
From the cohort described above, children up to 5 years of age that were fed different infant formulas during infancy were included in a large correlation analysis to examine the relationship between formula nutrient composition and brain myelination. The 5 most frequently used formulas in that cohort were analyzed for their nutritional composition. A single general linear model (GLM) was constructed that modeled all quantified nutrients, sphingomyelin, and child age. Voxel-wise correlations were calculated with significance defined as p<0.05 corrected for type 1 error using a cluster based correction approach.
To reduce the number of variables in the model, we examined the inter-variable correlation.

| Molecule | Nutritional driver for myelination in the final general linear model |
| --- | --- |
| CCCCC/C=C\C/C=C\C/C=C\C/C=C\CCCC(=O)O [ARA, arachidonic acid] | identified drivers |
| [Ca] [Calcium] | identified drivers |
| C[N+](C)(C)CCO [Choline] | identified drivers |
| Nc1nc2ncc(CNc3ccc(C(=O)N[C@@H](CCC(=O)O)C(=O)O)cc3)nc2c(=O)[nH]1 [Folic Acid, folic acid] | identified drivers |
| [Mg] [Magnesium] | identified drivers |
| [P] [Phosphorus] | identified drivers |
| Iron | identified drivers |
| Vitamin B12 | identified drivers |
| Zinc | identified drivers |
| phosphatidyinositol | nutritional drivers for myelination |
| phosphatidylcholine | nutritional drivers for myelination |
| sphingomyelin | nutritional drivers for myelination |

Same assay, conditions: in particular cerebellum, internal capsule, visual cortex, frontal lobe

| Molecule | Association with myelination (myelin water fraction) over time in the brain |
| --- | --- |
| sphingomyelin | significant association with myelination |
